Broadly, the pIC50 is the IC50 on a negative log10 scale, so that one unit is a factor of ten.

The values below come from patent US9643970B2, “Substituted imidazo [1,5-a]pyrazines as PDE9 inhibitors” (H Lundbeck A/S, priority 2012, dated 2017).

pIC50: −log10 of the molar value.

One experiment deals with PDE9 (Homo sapiens, UniProt O76083). In words: PDE9 inhibition assay. It counts as biochemical.
Chain of PDE9 (O76083 whole entry): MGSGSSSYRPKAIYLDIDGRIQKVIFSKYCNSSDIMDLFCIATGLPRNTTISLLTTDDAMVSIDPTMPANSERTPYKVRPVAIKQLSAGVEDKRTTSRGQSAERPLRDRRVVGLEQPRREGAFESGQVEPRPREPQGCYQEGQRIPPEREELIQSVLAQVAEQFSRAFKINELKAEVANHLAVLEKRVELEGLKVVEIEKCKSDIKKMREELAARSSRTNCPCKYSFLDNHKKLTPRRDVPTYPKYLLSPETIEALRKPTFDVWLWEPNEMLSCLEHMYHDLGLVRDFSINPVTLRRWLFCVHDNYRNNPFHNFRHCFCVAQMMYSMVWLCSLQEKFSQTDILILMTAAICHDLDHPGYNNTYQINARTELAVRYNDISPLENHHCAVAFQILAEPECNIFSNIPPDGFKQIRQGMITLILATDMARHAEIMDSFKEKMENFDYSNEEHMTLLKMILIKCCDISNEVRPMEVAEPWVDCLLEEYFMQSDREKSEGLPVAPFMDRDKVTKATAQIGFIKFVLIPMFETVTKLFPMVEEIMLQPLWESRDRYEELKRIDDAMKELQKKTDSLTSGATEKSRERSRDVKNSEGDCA
Conditions: not given
How it is done: Reactions are initiated by addition of the cyclic nucleotide substrate, and reactions are allowed to proceed for one hr at room temperature before being terminated through mixing with 15 uL 8 mg/mL yttrium silicate SPA beads (Amersham). […] IC50 values were calculated by non linear regression using XLfit (IDBS).
With `O=c1[nH]c(CN2CC(Oc3cccc(F)c3)C2)cn2c(C3CCOCC3)ncc12` [Compound 71, 6-[[3-(3-fluorophenoxy)azetidin-1-yl]methyl]-3-tetrahydropyran-4-yl-7h-imidazo[1,5-a]pyrazin-8-one], the pIC50 is 8.15. On the same count and under the same terms, to `O=c1[nH]c(CN2CC(Oc3ccc(F)cc3)C2)cn2c(C3CCOCC3)ncc12` [Compound 75, 6-[[3-(4-fluorophenoxy)azetidin-1-yl]methyl]-3-tetrahydropyran-4-yl-7h-imidazo[1,5-a]pyrazin-8-one] belongs 6.94; to `O=c1[nH]c(CN2CC(OCc3ccccc3)C2)cn2c(C3CCCC3)ncc12` [Compound 56, 6-[(3-benzyloxyazetidin-1-yl)methyl]-3-cyclopentyl-7h-imidazo[1,5-a]pyrazin-8-one], 7.30.

Consider `COc1ccc(C2CN(Cc3cn4c(-c5cc(F)cc(F)c5)ncc4c(=O)[nH]3)C2)cc1` [Compound 122, 3-(3,5-difluorophenyl)-6-[[3-(4-methoxyphenyl)azetidin-1-yl]methyl]-7h-imidazo[1,5-a]pyrazin-8-one], for which the pIC50 was 7.42. On the same count and under the same terms, as for `CC(C)OC1CN(C(C)c2cn3c(C4CCOCC4)ncc3c(=O)[nH]2)C1` (centres unmarked) [Compound 117, 6-[1-(3-isopropoxyazetidin-1-yl)ethyl]-3-tetrahydropyran-4-yl-7h-imidazo[1,5-a]pyrazin-8-one], the figure is 7.03; as for `CC(C)OC1CN(C(C)c2cn3c(-c4ccc(F)cc4)ncc3c(=O)[nH]2)C1` (centres unmarked) [Compound 116, 3-(4-fluorophenyl)-6-[1-(3-isopropoxyazetidin-1-yl)ethyl]-7h-imidazo[1,5-a]pyrazin-8-one], 7.66.

Still in this experiment, the particulars now being: SPA assay, 10 nM 3H-cAMP, 1 hour incubation; read-out: IC50.
`CC1CN(Cc2ccc(F)cc2)CC1c1cn2c(-c3ccc(Cl)cc3)nc(Br)c2c(=O)[nH]1` (centres unmarked) [Compound 111, 1-bromo-3-(4-chlorophenyl)-6-[1-[(4-fluorophenyl)methyl]-4-methyl-pyrrolidin-3-yl]-7h-imidazo[1,5-a]pyrazin-8-one]: the pIC50 is 7.13. Still for that read-out and setting: as for `CC1CN(Cc2ccccn2)CC1c1cn2c(C3CCOCC3)ncc2c(=O)[nH]1` (centres unmarked) [Compound 81, 6-[4-methyl-1-(2-pyridylmethyl)pyrrolidin-3-yl]-3-tetrahydropyran-4-yl-7h-imidazo[1,5-a]pyrazin-8-one], the figure is 7.72; as for `CC1CN(Cc2ccccc2)CC1c1cn2c(-c3ccccc3)ncc2c(=O)[nH]1` (centres unmarked) [Compound 31, 6-(1-benzyl-4-methyl-pyrrolidin-3-yl)-3-phenyl-7h-imidazo[1,5-a]pyrazin-8-one], 7.48; as for `O=c1[nH]c(CN2CC(OCc3ccccc3)C2)cn2c(C3CCOCC3)ncc12` [Compound 67, 6-[(3-benzyloxyazetidin-1-yl)methyl]-3-tetrahydropyran-4-yl-7h-imidazo[1,5-a]pyrazin-8-one], 7.70. On the same count and under the same terms, as for `CC1CN(Cc2ccc(C(F)(F)F)nc2)CC1c1cn2c(C3CCOCC3)ncc2c(=O)[nH]1` (centres unmarked) [Compound 79, 6-[4-methyl-1-[[6-(trifluoromethyl)-3-pyridyl]methyl]pyrrolidin-3-yl]-3-tetrahydropyran-4-yl-7h-imidazo[1,5-a]pyrazin-8-one], the figure is 7.64; as for `O=c1[nH]c(CN2CC(Oc3ccc(F)cc3)C2)cn2c(-c3ccccc3)ncc12` [Compound 23, 6-[[3-(4-fluorophenoxy)azetidin-1-yl]methyl]-3-phenyl-7h-imidazo[1,5-a]pyrazin-8-one], 7.80; as for `CC1CN(CC2CCCCC2)CC1c1cn2c(C3CCOCC3)ncc2c(=O)[nH]1` (centres unmarked) [Compound 115, 6-[1-(cyclohexylmethyl)-4-methyl-pyrrolidin-3-yl]-3-tetrahydropyran-4-yl-7h-imidazo[1,5-a]pyrazin-8-one], 7.43.

As to `CC1CN(Cc2ccc(C#N)cc2)CC1c1cn2c(C3CCOCC3)ncc2c(=O)[nH]1` (centres unmarked) [Compound 98, 4-[[3-methyl-4-(8-oxo-3-tetrahydropyran-4-yl-7h-imidazo[1,5-a]pyrazin-6-yl)pyrrolidin-1-yl]methyl]benzonitrile], the negative-log IC50 (pIC50) was 7.74. On the same count and under the same terms, as for `COC1CN(C(C)C2(C)Cn3c(cnc3C3CCOCC3)C(=O)N2)C1` (centres unmarked) [Compound 112, 6-[1-(3-methoxyazetidin-1-yl)ethyl]-6-methyl-3-tetrahydropyran-4-yl-7h-imidazo[1,5-a]pyrazin-8-one], the figure is 7.66; as for `O=c1[nH]c(CN2CCC(Oc3ncccn3)C2)cn2c(C3CCOCC3)ncc12` (centres unmarked) [Compound 84, 6-[(3-pyrimidin-2-yloxypyrrolidin-1-yl)methyl]-3-tetrahydropyran-4-yl-7h-imidazo[1,5-a]pyrazin-8-one], 6.96; as for `COC1CN(C(C)c2cn3c(-c4ccccc4)ncc3c(=O)[nH]2)C1` (centres unmarked) [Compound 20, 6-[1-(3-methoxyazetidin-1-yl)ethyl]-3-phenyl-7h-imidazo[1,5-a]pyrazin-8-one], 7.77. Same read-out and setting: to `O=c1[nH]c(CN2CC(Oc3ccc(OC(F)(F)F)cc3)C2)cn2c(-c3ccc(F)cc3)ncc12` [Compound 74, 3-(4-fluorophenyl)-6-[[3-[4-(trifluoromethoxy)phenoxy]azetidin-1-yl]methyl]-7h-imidazo[1,5-a]pyrazin-8-one] belongs 7.80; to `O=c1[nH]c(CN2CC(Oc3cccc(F)c3)C2)cn2c(-c3ccccc3)ncc12` [Compound 16, 6-[[3-(3-fluorophenoxy)azetidin-1-yl]methyl]-3-phenyl-7h-imidazo[1,5-a]pyrazin-8-one], 7.01. Turning to `O=c1[nH]c(CN2CC(Oc3ccccc3F)C2)cn2c(-c3ccc(F)cc3)ncc12` [Compound 49, 6-[[3-(2-fluorophenoxy)azetidin-1-yl]methyl]-3-(4-fluorophenyl)-7h-imidazo[1,5-a]pyrazin-8-one], the pIC50 was 7.80. In the case of `O=c1[nH]c(CN2CC(Oc3ccc(OC(F)(F)F)cc3)C2)cn2c(C3CCOCC3)ncc12` [Compound 64, 3-tetrahydropyran-4-yl-6-[[3-[4-(trifluoromethoxy)phenoxy]azetidin-1-yl]methyl]-7h-imidazo[1,5-a]pyrazin-8-one], the pIC50 is 7.89. On the same count and under the same terms, to `CC(c1cn2c(-c3ccc(F)cc3)ncc2c(=O)[nH]1)N1CC(Oc2ccc(OC(F)(F)F)cc2)C1` (centres unmarked) [Compound 120, 3-(4-fluorophenyl)-6-[1-[3-[4-(trifluoromethoxy)phenoxy]azetidin-1-yl]ethyl]-7h-imidazo[1,5-a]pyrazin-8-one] belongs 7.46; to `CC1CN(Cc2ncccn2)CC1c1cn2c(C3CCOCC3)ncc2c(=O)[nH]1` (centres unmarked) [Compound 90, 6-[4-methyl-1-(pyrimidin-2-ylmethyl)pyrrolidin-3-yl]-3-tetrahydropyran-4-yl-7h-imidazo[1,5-a]pyrazin-8-one], 7.72. Same read-out and setting: as for `O=c1[nH]c(CN2CC(c3ccc(F)cc3)C2)cn2c(-c3ccc(F)cc3)ncc12` [Compound 76, 3-(4-fluorophenyl)-6-[[3-(4-fluorophenyl)azetidin-1-yl]methyl]-7h-imidazo[1,5-a]pyrazin-8-one], the figure is 7.48; as for `O=c1[nH]c(CN2CC(c3ccc(F)cc3)C2)cn2c(C3CCOCC3)ncc12` [Compound 44, 6-[[3-(4-fluorophenyl)azetidin-1-yl]methyl]-3-tetrahydropyran-4-yl-7h-imidazo[1,5-a]pyrazin-8-one], 7.60. The same measure, in the same setting: to `O=c1[nH]c(CN2CCC(Nc3ccccc3)C2)cn2c(C3CCOCC3)ncc12` (centres unmarked) [Compound 66, 6-[(3-anilinopyrrolidin-1-yl)methyl]-3-tetrahydropyran-4-yl-7h-imidazo[1,5-a]pyrazin-8-one] belongs 7.82. As for `CC(c1cn2c(-c3ccccc3)ncc2c(=O)[nH]1)N1CC(Oc2cnccn2)C1` (centres unmarked) [Compound 15, 3-phenyl-6-[1-(3-pyrazin-2-yloxyazetidin-1-yl)ethyl]-7h-imidazo[1,5-a]pyrazin-8-one], the pIC50 was 7.40. Still for that read-out and setting: as for `Cc1ccc(COC2CN(Cc3cn4c(-c5ccc(F)cc5)ncc4c(=O)[nH]3)C2)cc1` [Compound 113, 3-(4-fluorophenyl)-6-[[3-(p-tolylmethoxy)azetidin-1-yl]methyl]-7h-imidazo[1,5-a]pyrazin-8-one], the figure is 8.05; as for `O=c1[nH]c(CN2CCC(Oc3ncccn3)C2)cn2c(-c3ccc(F)cc3)ncc12` (centres unmarked) [Compound 86, 3-(4-fluorophenyl)-6-[(3-pyrimidin-2-yloxypyrrolidin-1-yl)methyl]-7h-imidazo[1,5-a]pyrazin-8-one], 6.63; as for `O=c1[nH]c(CN2CC(Oc3cnc4ccccc4n3)C2)cn2c(-c3ccccc3)ncc12` [Compound 13, 3-phenyl-6-[(3-quinoxalin-2-yloxyazetidin-1-yl)methyl]-7h-imidazo[1,5-a]pyrazin-8-one], 8.15. On the same count and under the same terms, to `CC(c1cn2c(-c3ccccc3)ncc2c(=O)[nH]1)N1CC(c2ccc(F)cc2)C1` (centres unmarked) [Compound 28, 6-[1-[3-(4-fluorophenyl)azetidin-1-yl]ethyl]-3-phenyl-7h-imidazo[1,5-a]pyrazin-8-one] belongs 7.28; to `CCc1ccc(C2CN(Cc3cn4c(C5CCOCC5)ncc4c(=O)[nH]3)C2)cc1` [Compound 78, 6-[[3-(4-ethylphenyl)azetidin-1-yl]methyl]-3-tetrahydropyran-4-yl-7h-imidazo[1,5-a]pyrazin-8-one], 8.22; to `O=c1[nH]c(CN2CC(Oc3ccncc3)C2)cn2c(-c3ccc(F)cc3)ncc12` [Compound 87, 3-(4-fluorophenyl)-6-[[3-(4-pyridyloxy)azetidin-1-yl]methyl]-7h-imidazo[1,5-a]pyrazin-8-one], 7.38. On to `N#Cc1cccc(OC2CN(Cc3cn4c(-c5ccc(F)cc5)ncc4c(=O)[nH]3)C2)c1` [Compound 93, 3-[1-[[3-(4-fluorophenyl)-8-oxo-7h-imidazo[1,5-a]pyrazin-6-yl]methyl]azetidin-3-yl]oxybenzonitrile], for which the pIC50 was 7.74. Same read-out and setting: to `CC(c1cn2c(-c3ccccc3)ncc2c(=O)[nH]1)N1CC(c2ncccn2)C1` (centres unmarked) [Compound 36, 3-phenyl-6-[1-(3-pyrimidin-2-ylazetidin-1-yl)ethyl]-7h-imidazo[1,5-a]pyrazin-8-one] belongs 7.10.
